Experiment [1] deals with T1, Class B β-lactamase (A. hydrophila enzyme) (Aeromonas hydrophila, UniProt P26918).
T1 construct: Bacillus cereus, Pseudomonas aeruginosa and Aeromonas hydrophila; endogenous in cells; host or cells: Aeromonas hydrophila (enzyme purified from the bacterium)
Briefly: Inhibition/inactivation kinetics, reporter substrate imipenem. The settings on record: for mode of inhibition of the A. hydrophila enzyme: further kinetic analyses, no reactivation was observed; for pKi: inactivation kinetics, 200 μM imipenem, 30° C., pH 6.5, 0.1 mM ZnCl2, read-out: K = apparent binding constant between the enzyme and substrate. The experiment is classed as biochemical. As to the method:
(§1) Class B β-lactamases were purified according to published^4 or standard procedures from a range of bacteria, including: Xanthomonas maltophilia, Bacillus cereus, Pseudomonas aeruginosa and Aeromonas hydrophila.
(§2) Assays for inhibition were also carried out according to published procedures^4. Kinetic experiments were typically carried out at 30° C. with 30 mM sodium cacodylate buffer, pH 6.5, containing 0.1 mM ZnCl2.
(§3) The Ki (inhibition constant) values were determined by analysing the initial rate of hydrolysis at different inhibitor concentrations using the following reporter substrates: 30 μm nitrocefin (X. maltophilia enzyme), 200 μM imipenem (A. hydrophila), or 1 mM cephalosporin C (B. cereus and P. aeruginosa enzymes). Data analysis was carried out according to standard kinetic procedures [Felici, A. et al., Biochem. J., 291, 151-155 (1993) and references therein].
Compounds 3, 4, 5, 6, 7 and 9 were also shown to be inhibitors of the A. hydrophila enzyme. […] The following kinetic parameters were obtained, where K=apparent binding constant between the enzyme and substrate and k+2 =apparent rate constant for inactivation as in the following scheme: [formula] Kinetic data for compound 3: K=6 μM, k+2 =4.3×10^-2 s^-1

Experiment [2] deals with T2, Class B β-lactamase (B. cereus enzyme) (Bacillus cereus, UniProt P04190).
T2 construct: from a range of bacteria, including: Xanthomonas maltophilia, Bacillus cereus; endogenous in cells; host or cells: Bacillus cereus (enzyme purified from the bacterium)
The experiment is described as follows: Ki determination, initial rate of hydrolysis of reporter substrate cephalosporin C. The experiment is classed as biochemical. As to the method:
as §1, §2, §3

In experiment [3] the target is T3, Class B β-lactamase (P. aeruginosa enzyme) (Pseudomonas aeruginosa, UniProt Q79MP6).
T3 construct: Bacillus cereus, Pseudomonas aeruginosa and Aeromonas hydrophila; endogenous in cells; host or cells: Pseudomonas aeruginosa (enzyme purified from the bacterium)
Described as above. The experiment is classed as biochemical. The settings on record: competitive inhibition; 1 mM cephalosporin C; 30° C., pH 6.5, 0.1 mM ZnCl2; read-out: Ki (inhibition constant). As to the method: as §1, §2, §3

Experiment [4] deals with T4, Class B β-lactamase (X. maltophilia enzyme) (Stenotrophomonas maltophilia, UniProt P52700).
T4 construct: standard procedures from a range of bacteria, including: Xanthomonas maltophilia; endogenous in cells; host or cells: Xanthomonas maltophilia (enzyme purified from the bacterium)
The experiment is described as follows: Ki determination, initial rate of hydrolysis of reporter substrate nitrocefin. The class given is biochemical, Xanthomonas maltophilia. Here is the method: as §1, §2, §3

Setting [5] is: read-out: Ki (inhibition constant), competitive inhibition, 1 mM cephalosporin C, 30° C., pH 6.5, 0.1 mM ZnCl2.
[6] abbreviates: competitive inhibition, 1 mM cephalosporin C, 30° C., pH 6.5, 0.1 mM ZnCl2, read-out: Ki (inhibition constant).

pKi: −log10 of the molar value. Where two headings read alike, the source gives them in different places.

T4 sequence (P52700 34-290): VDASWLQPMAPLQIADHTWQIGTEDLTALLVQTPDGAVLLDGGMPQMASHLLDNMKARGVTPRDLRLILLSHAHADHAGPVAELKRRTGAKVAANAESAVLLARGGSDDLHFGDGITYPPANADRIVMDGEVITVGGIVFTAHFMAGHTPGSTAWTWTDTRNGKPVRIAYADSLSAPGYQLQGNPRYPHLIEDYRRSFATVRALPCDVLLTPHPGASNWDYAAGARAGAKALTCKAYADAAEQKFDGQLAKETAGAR
T1 sequence (P26918 28-254): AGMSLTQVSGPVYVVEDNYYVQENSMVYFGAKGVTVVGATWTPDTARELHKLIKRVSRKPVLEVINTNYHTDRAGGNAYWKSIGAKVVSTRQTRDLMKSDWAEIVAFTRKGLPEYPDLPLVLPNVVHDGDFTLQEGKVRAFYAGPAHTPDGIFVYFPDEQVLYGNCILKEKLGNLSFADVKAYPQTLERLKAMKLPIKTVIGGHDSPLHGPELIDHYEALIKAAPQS
T2 sequence (P04190 31-257): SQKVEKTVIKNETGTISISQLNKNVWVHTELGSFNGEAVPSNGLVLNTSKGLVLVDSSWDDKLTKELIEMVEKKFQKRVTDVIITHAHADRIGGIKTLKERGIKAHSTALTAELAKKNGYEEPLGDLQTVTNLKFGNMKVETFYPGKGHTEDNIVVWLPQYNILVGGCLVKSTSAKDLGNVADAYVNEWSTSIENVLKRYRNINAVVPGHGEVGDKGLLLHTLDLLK
T3 sequence (Q79MP6 19-246 limits assumed): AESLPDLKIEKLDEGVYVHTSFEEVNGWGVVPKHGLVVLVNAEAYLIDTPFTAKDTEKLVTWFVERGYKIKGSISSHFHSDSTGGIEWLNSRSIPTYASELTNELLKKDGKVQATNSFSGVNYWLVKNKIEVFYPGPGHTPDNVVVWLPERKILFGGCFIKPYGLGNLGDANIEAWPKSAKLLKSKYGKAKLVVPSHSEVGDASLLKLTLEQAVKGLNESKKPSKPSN

Turning to `O=C(COc1ccccc1)N[C@H](Cc1ccccc1)[C@H](O)C(F)(F)F` [Compound 5], the “mode of inhibition of the A. hydrophila enzyme” value in experiment [1] is on record as “inactivators”. The pKi in experiment [1] was 4.70; in experiment [2] (setting [5]), 4.52; in experiment [3], 4.22.

For the compound `O=C(COc1ccccc1)N[C@H](Cc1ccccc1)C(=O)C(F)(F)F` [Compound 2], in experiment [2] (setting [6]), the pKi was 3.00.

As for `C[C@H](NC(=O)COc1ccccc1)C(=O)C(F)(F)F` [Compound 6], in experiment [1], the “mode of inhibition of the A. hydrophila enzyme” value is “inactivators”. In addition, the pKi in experiment [1] is 4.36; in experiment [4] it was 5.82; in experiment [2] it was 4.52; in experiment [3], 3.52.

On to `C[C@@H](NC(=O)COc1ccccc1)[C@H](O)C(F)(F)F` [Compound 9], for which the “mode of inhibition of the A. hydrophila enzyme” value in experiment [1] is given as “inactivators”. Further, the pKi in experiment [1] was 3.66; in experiment [4] (read-out: Ki (inhibition constant), competitive inhibition, 30 μm nitrocefin, 30° C., 30 mM sodium cacodylate pH 6.5, 0.1 mM ZnCl2) it was 4.46; in experiment [2] (setting [5]), 3.15; in experiment [3], 3.40.

For `O=C(COc1ccccc1)N[C@@H](Cc1ccccc1)C(=O)C(F)(F)F` [Compound 3], the “mode of inhibition of the A. hydrophila enzyme” value in experiment [1] was “inactivators”. Further, the pKi is 5.22 in experiment [1], 4.82 in experiment [4], 3.30 in experiment [2] and 3.28 in experiment [3].

With `O=C(CC(=O)C(F)(F)F)c1ccccc1` [Compound 1, reference compound], the pKi in experiment [2] (setting [6]) is 3.52.

For `C[C@@H](NC(=O)COc1ccccc1)C(=O)C(F)(F)F` [Compound 7], in experiment [1], the “mode of inhibition of the A. hydrophila enzyme” value is reported as “inactivators”. Moreover, the pKi in experiment [1] was 4.96; in experiment [4], 5.52; in experiment [2], 3.15; in experiment [3], 3.30.

For the compound `O=C(COc1ccccc1)N[C@@H](Cc1ccccc1)[C@H](O)C(F)(F)F` [Compound 4], the “mode of inhibition of the A. hydrophila enzyme” value in experiment [1] is “inactivators”. The pKi in experiment [1] was 4.72; in experiment [2] (setting [5]), 3.00; in experiment [3] it was 3.05.

As to `C[C@H](NC(=O)COc1ccccc1)[C@H](O)C(F)(F)F` [Compound 8], the pKi in experiment [2] (setting [5]) is 3.52; in experiment [3] it was 3.40.
